In paper PMC10176470, “Engaging a Non-catalytic Cysteine Residue Drives Potent and Selective Inhibition of Caspase-6” (Journal of the American Chemical Society, 2023) one finds enrich.exp.med, enrich.exp.med.lin and enrich.exp.med.log2 data, which are given here for one compound.

Holding throughout (format): cell-based
Assay [1] addresses T1, proteins of HEK293T cells transiently overexpressing caspase-6 (Homo sapiens, UniProt O43175).
T1 sequence (O43175 1-533): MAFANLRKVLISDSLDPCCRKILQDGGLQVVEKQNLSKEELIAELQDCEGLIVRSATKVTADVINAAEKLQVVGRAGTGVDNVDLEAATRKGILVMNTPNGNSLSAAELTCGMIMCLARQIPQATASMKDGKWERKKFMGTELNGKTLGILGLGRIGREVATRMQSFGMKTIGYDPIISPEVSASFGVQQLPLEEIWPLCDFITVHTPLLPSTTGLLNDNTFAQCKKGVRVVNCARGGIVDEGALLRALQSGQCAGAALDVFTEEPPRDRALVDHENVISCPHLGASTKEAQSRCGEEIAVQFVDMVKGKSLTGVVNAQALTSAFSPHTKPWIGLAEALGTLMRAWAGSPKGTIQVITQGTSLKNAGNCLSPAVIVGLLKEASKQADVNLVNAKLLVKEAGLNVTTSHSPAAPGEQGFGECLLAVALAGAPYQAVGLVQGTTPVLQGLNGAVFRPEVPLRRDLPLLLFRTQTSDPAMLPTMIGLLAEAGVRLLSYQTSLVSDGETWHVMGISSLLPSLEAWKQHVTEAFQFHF
To be noted: protein PHGDH (O43175).

Assay [2] deals with proteins of HEK293T cells transiently overexpressing caspase-6 (Homo sapiens, UniProt O96008). Particulars: exp_ref Probe; protein TOMM40 (O96008); analysis C6.
Assay [3] concerns the target proteins of HEK293T cells transiently overexpressing caspase-6 (Homo sapiens, UniProt P00338). Particulars: Probe; protein LDHA P00338.
In assay [4] the target is T2, proteins of HEK293T cells transiently overexpressing caspase-6 (Homo sapiens, UniProt P30084).
T2 sequence (P30084 28-290): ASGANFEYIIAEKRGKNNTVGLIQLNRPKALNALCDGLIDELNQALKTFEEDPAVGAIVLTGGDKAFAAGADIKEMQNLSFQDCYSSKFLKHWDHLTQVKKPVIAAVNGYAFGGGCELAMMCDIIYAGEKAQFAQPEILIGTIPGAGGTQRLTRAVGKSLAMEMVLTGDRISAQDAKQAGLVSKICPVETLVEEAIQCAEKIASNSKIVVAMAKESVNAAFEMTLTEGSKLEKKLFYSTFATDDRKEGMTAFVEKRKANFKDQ
Particulars: exp_ref Probe; protein ECHS1 (P30084); analysis C6.

Assay [5] addresses T3, proteins of HEK293T cells transiently overexpressing caspase-6 (Homo sapiens, UniProt P50990).
T3 sequence (P50990 1-548): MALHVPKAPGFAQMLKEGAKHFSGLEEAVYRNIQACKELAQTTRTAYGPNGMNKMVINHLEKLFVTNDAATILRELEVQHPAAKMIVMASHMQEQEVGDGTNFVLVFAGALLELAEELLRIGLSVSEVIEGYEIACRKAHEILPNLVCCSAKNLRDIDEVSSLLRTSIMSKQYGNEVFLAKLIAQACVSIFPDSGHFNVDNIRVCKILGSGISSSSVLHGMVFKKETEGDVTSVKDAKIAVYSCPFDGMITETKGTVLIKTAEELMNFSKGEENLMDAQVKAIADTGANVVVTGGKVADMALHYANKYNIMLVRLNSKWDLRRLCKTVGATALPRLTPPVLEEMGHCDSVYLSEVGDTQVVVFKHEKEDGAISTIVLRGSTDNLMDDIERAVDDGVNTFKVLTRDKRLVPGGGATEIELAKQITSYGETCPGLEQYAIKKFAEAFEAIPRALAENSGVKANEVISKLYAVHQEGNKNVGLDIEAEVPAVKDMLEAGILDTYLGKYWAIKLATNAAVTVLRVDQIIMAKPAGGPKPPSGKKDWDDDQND
Particulars: protein CCT8 (P50990).

Assay [6] has as its target proteins of HEK293T cells transiently overexpressing caspase-6 (Homo sapiens, UniProt P62826). To be noted: exp_ref Probe; protein RAN (P62826); analysis C6.
In assay [7] the target is proteins of HEK293T cells transiently overexpressing caspase-6 (Homo sapiens, UniProt P62888). To be noted: exp_ref Probe; protein RPL30 (P62888); analysis C6.
Assay [8] deals with T4, proteins of HEK293T cells transiently overexpressing caspase-6 (Homo sapiens, UniProt Q07065).
T4 sequence (Q07065 1-602): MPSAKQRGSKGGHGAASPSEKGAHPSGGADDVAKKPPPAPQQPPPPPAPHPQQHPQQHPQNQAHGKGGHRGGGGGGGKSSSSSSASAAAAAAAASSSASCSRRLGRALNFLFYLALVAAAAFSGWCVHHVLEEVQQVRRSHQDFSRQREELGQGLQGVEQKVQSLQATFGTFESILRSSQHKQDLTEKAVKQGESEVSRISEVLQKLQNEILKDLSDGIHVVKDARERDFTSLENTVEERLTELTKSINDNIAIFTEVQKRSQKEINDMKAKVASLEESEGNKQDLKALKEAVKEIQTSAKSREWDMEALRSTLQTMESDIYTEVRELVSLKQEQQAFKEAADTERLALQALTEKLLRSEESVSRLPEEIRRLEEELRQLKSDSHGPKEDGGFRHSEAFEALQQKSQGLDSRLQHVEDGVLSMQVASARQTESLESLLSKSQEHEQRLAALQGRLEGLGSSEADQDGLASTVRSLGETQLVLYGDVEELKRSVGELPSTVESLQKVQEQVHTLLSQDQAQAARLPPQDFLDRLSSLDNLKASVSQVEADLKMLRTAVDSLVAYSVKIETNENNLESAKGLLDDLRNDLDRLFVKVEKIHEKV
To be noted: protein CKAP4 (Q07065).

Assay [9] deals with proteins of HEK293T cells transiently overexpressing caspase-6 (Homo sapiens, UniProt Q14157). Particulars: Probe; protein UBAP2L Q14157.
The target in assay [10] is proteins of HEK293T cells transiently overexpressing caspase-6 (Homo sapiens, UniProt Q9NX40). Particulars: protein OCIAD1 (Q9NX40); exp_ref Probe; analysis C6.

Where two headings read alike, the source gives them in different places.

proteins of HEK293T cells transiently overexpressing caspase-6 (Homo sapiens, UniProt Q9NX40), sequence (Q9NX40 whole entry): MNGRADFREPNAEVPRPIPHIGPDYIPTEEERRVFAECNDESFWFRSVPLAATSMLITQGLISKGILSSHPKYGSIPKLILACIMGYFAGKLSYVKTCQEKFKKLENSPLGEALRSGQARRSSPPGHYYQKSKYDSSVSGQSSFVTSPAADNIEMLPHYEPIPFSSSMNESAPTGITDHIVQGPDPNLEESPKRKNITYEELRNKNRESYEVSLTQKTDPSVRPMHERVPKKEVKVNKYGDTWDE
proteins of HEK293T cells transiently overexpressing caspase-6 (Homo sapiens, UniProt Q14157), sequence (Q14157 whole entry): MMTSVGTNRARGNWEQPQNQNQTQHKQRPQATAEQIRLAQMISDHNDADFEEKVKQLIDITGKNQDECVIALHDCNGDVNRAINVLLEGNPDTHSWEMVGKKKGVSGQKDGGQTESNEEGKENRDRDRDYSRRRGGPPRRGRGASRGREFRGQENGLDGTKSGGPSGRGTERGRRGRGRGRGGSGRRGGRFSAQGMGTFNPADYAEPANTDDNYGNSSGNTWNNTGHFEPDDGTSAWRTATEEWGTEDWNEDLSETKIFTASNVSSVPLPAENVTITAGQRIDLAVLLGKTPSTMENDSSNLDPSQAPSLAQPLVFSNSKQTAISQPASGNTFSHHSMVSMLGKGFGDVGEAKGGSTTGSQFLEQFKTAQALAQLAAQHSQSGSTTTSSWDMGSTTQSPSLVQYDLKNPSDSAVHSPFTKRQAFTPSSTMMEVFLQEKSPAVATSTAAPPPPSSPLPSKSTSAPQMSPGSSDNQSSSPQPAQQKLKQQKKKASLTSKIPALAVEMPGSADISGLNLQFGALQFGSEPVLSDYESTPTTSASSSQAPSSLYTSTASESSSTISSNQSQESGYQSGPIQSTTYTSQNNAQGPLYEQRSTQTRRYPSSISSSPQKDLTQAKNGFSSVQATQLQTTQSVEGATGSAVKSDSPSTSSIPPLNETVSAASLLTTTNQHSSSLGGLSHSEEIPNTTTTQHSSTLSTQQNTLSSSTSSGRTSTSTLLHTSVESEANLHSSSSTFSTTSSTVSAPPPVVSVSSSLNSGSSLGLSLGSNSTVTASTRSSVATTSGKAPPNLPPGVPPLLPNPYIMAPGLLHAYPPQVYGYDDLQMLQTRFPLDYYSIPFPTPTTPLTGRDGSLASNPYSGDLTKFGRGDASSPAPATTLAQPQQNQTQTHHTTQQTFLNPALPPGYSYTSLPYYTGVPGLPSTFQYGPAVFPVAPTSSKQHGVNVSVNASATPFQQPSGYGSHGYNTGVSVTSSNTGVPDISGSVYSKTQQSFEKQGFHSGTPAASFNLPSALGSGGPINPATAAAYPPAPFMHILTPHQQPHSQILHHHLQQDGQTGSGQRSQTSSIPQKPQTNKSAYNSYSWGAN
proteins of HEK293T cells transiently overexpressing caspase-6 (Homo sapiens, UniProt O96008), sequence (O96008 whole entry): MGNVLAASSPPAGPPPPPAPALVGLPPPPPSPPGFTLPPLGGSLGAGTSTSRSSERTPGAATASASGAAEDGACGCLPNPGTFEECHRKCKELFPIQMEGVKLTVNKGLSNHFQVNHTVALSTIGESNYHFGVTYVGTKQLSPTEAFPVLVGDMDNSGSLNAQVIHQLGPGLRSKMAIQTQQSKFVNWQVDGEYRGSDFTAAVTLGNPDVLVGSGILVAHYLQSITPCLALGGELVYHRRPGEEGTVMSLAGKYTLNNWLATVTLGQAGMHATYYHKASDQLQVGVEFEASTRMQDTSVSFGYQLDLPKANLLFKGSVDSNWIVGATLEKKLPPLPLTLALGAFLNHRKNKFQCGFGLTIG

Take `C#CCOc1ccc([C@@H]2C[C@@H](C(=O)Nc3ccc(OC(F)(F)F)cc3)CN(S(=O)(=O)C=C)C2)cc1` (relative stereo) [13-t]: the enrich.exp.med in assay [1] (exp_ref Probe, analysis C6) is 1.1798; in assay [2] it was 0.5045; in [3] it was -0.5222; in assay [4], 0.4283; in assay [5] (exp_ref Probe, analysis C6), 0.932; in [6], 0.5777. Also, the enrich.exp.med in [7] is listed as 0.3258; in assay [8] (exp_ref Probe, analysis C6), 2.313; in [9], -0.84; in [10], 2.033. Further, the enrich.exp.med.lin came to 2.265 in [1]; 1.908 in assay [5]; 4.971 in assay [8]; 4.971 in assay [8] (Expt Probe, analysis C6). The enrich.exp.med.log2 is listed as 1.1798 in assay [1]; 0.932 in assay [5]; 2.313 in assay [8]; 2.313 in assay [8] (Expt Probe, analysis C6).
